Read-outs that look alike come from different tables or passages of the source.
Experiments:
[1] = Pharmacokinetics of JHG components in pulmonary fibrosis (PF) model rats after intragastric administration of JHGs (plasma, Orbitrap Fusion MS); format: in vivo, Sprague Dawley (SD) rats; conditions: for Cmax, PF model group compared with the control group: medium dose selected for comparison; for AUCs, PF model group compared with the control group: p < 0.05; for Tmax / half-life / MRT last / Cmax / AUC(0-inf) / AUC(0-t) / MRT inf: male, rat, plasma, po; for pharmacokinetic process (versus dosage): low, medium, high doses of JHGs; for MRT last: read-out: MRT(0-t); for Cmax: intragastric JHGs; for MRT inf: read-out: MRT(0-∞)
Procedure: Healthy male Sprague Dawley (SD) rats of SPF grade (240 ± 20 g) were purchased from Sipeifu (Beijing, China) Biotechnology Co., Ltd. (Beijing, China), Certificate of Conformity No.: SCYK (Beijing, China) 2019-0015, Animal Quality Certificate No.: 110324220102348616. They were housed in the Animal Center of Henan University of Traditional Chinese Medicine, which passed the ethical audit, ethics number: DWLL202208003, breeding Co. 24 °C, relative humidity 50 ± 2%. The animals fasted for 12 h before the experiment and drank water freely. All feeding and experimental studies on experimental animals were in accordance with the regulations on the Management of Experimental Animals in Henan Province.
The PF model in rats was replicated by reference to the conclusion tracheal intubation method in the literature. After the rats were anesthetized, bleomycin (BLM) (5 mg/kg) was used as an induction agent and followed the tracheal intubation method. BLM solution was aspirated with a 1 mL syringe and injected into the indwelling syringe. A total of 0.3 mL of air was rapidly pushed into the syringe, the rats were immediately stroked upright so that the BLM solution was evenly distributed in both lungs. BLM was given on day 0 for modeling, then gavage was taken after day 28, with fasting without water for 12 h before sampling. The histopathological examination was performed to verify the construction of the PF model. The rats were anesthetized by the abdominal cavity, then the lung tissues were violently shocked by opening the chest, and the right lower lobe of the lung was taken and fixed in 4% formaldehyde solution, then dehydrated by sucrose gradient, paraffin-embedded, and sectioned. H&E and Masson staining were performed to observe the degree of alveolitis of lung tissue and the degree of pulmonary fibrosis, respectively. The inflammation and fibrosis of lung tissues was observed under the light microscope.
Twenty-four healthy male SD rats or PF model rats, weighing 240 ± 20 g, fasted for 12 h before the experiment and drank water freely. Both kinds of rats were randomly divided into four groups. Blank group: equal dose of water by intragastric, low dose; administration group: rats were given the equivalent human dose of JHGs by intragastric, i.e., 10.8 g of raw drug/kg/d (5.70 g/kg/d); medium-dose administration group: 2 times the human equivalent dose of JHGs by intragastric, i.e., 21.6 g of raw drug/kg/d (11.41 g/kg/d); high-dose administration group: 4 times the human equivalent dose of JHG, i.e., 43.2 g of raw drug/kg/d (22.81 g/kg/d). Blood was collected from the tail vein before and 0.083, 0.25, 0.5, 0.75, 1, 1.5, 2, 3, 4, 6, 8, 12, 18, and 24 h after dosing, respectively. A total of 0.5 mL was placed in a heparin sodium centrifuge tube. Whole blood was left for 30 min and then centrifuged in a low-temperature freezing centrifuge (4 °C, 3000 r/min) for 15 min. The upper layer of plasma was collected and stored in a refrigerator at −80 °C.
We added 50 μL of internal standard solution and 800 μL of methanol, shook for 15 min, then centrifuged at 12,000 r/min for 10 min, took the supernatant, dried in a centrifuge concentrator, added 50 μL of the initial mobile phase to the residue, dissolved, centrifuged, then separated the upper layer of the solution used as the test solution. A total of 5 μL test solution was taken into the sample for analysis. For each compound with a certain dosage, the same procedure is repeated six times in parallel. The concentration in plasma was calculated by the internal standard method.
Accucore C18 (100 mm × 2.1 mm, 2.6 μm) column at 25 °C, the mobile phase was methanol (A)-0.1% formic acid aqueous solution (B). The gradient elution program was 0–4 min (65% B-40% B), 4–5 min (40% B-40% B), 5–6 min (40% B-28% B), and 6–7 min (28% B-19% B), 7–7.5 min (19% B-10% B), 7.5–11 min (10% B-0% B), the flow rate was 0.2 mL/min, and the injection volume was 5 μL. […]

[2] = after oral administration; cited from earlier work
[3] = Sprague-Dawley, PF model rats, after administration of JHGs, read-out: Tmax of all dosages
[4] = PF model rats, JHGs high dose 22.81 g/kg/d
[5] = PF model rats, JHGs low dose 5.70 g/kg/d
[6] = PF model rats, JHGs medium dose 11.41 g/kg/d
[7] = Sprague Dawley, 5.7 g/kg/day, PF model rats, JHGs low dose 5.70 g/kg/d
[8] = Sprague Dawley, 5.7 g/kg/day, PF model rats, JHGs low dose 5.70 g/kg/d, read-out: Tmax
[9] = Sprague Dawley, 5.7 g/kg/day, PF model rats, low dose 5.70 g/kg/d, n=6 (1st of 3 stacked values)
[10] = Sprague Dawley, 11.41 g/kg/day, PF model rats, JHGs medium dose 11.41 g/kg/d
[11] = Sprague Dawley, 11.41 g/kg/day, PF model rats, JHGs medium dose 11.41 g/kg/d, read-out: Tmax
[12] = Sprague Dawley, 11.41 g/kg/day, PF model rats, medium dose 11.41 g/kg/d, n=6 (2nd of 3 stacked values)
[13] = Sprague Dawley, 22.81 g/kg/day, PF model rats, JHGs high dose 22.81 g/kg/d
[14] = Sprague Dawley, 22.81 g/kg/day, PF model rats, JHGs high dose 22.81 g/kg/d, read-out: Tmax
[15] = Sprague-Dawley, 5.7 g/kg/day, PF model rats, JHGs low dose 5.70 g/kg/d
[16] = Sprague-Dawley, 11.41 g/kg/day, PF model rats, JHGs medium dose 11.41 g/kg/d
[17] = Sprague-Dawley, 22.81 g/kg/day, PF model rats, JHGs high dose 22.81 g/kg/d
[18] = Sprague-Dawley, 22.81 g/kg/day, PF model rats, high dose 22.81 g/kg/d, n=6 (3rd of 3 stacked values)

| Tmax [1, 3] [h] | Clearances [1, 4] [mL/min/kg] | Vss [1, 4] [L] | Clearances [1, 5] [mL/min/kg] | Vss [1, 5] [L] | Clearances [1, 6] [mL/min/kg] | Vss [1, 6] [L] | half-life [1, 7] [h] | MRT last [1, 7] [h] | Tmax [1, 8] [h] | Cmax [1, 9] [ng/mL] | half-life [1, 10] [h] | MRT last [1, 10] [h] | Tmax [1, 11] [h] | Cmax [1, 12] [ng/mL] | half-life [1, 13] [h] | Tmax [1, 14] [h] | AUC(0-inf) [1, 15] [ng·h/mL] | AUC(0-t) [1, 15] [ng·h/mL] | MRT inf [1, 15] [h] | Compound | other results |
| --- | --- | --- | --- | --- | --- | --- | --- | --- | --- | --- | --- | --- | --- | --- | --- | --- | --- | --- | --- | --- | --- |
| ≤ 2 | – | – | – | – | – | – | – | – | – | – | – | – | – | – | – | – | – | – | – | O=c1cc(-c2ccc(O)cc2)oc2cc(OC3OC(CO)C(O)C(O)C3O)cc(O)c12 (stereo not shown) [Apigenin-7-glucoside] | Tmax, PF model group compared with the control group ([1]; PF model vs control rats): decreased significantly; Cmax, PF model group compared with the control group ([1]; PF model vs control rats): significantly decreased; AUCs, PF model group compared with the control group ([1]; PF model vs control rats): significantly decreased |
| – | – | – | – | – | – | – | – | – | – | – | – | – | – | – | – | – | – | – | – | O=c1cc(-c2ccc(O)c(O)c2)oc2cc(O[C@@H]3O[C@H](CO)[C@@H](O)[C@H](O)[C@H]3O)cc(O)c12 [Cynaroside] | Cmax and AUCs (AUC(0–t), AUC (0–∞)) compared among the analytes ([1]; PF model rats): highest; correlation between CL, AUC, t½, and dose ([1]; PF model rats): there was a correlation; pharmacokinetic process (versus dosage) ([1]; PF model rats): linear pharmacokinetic process; AUC(0–t) in the model group relative to the control group ([1]; PF model vs control rats): approximately twice as high; Cmax in the model group relative to the control group ([1]; PF model vs control rats): approximately twice as high |
| ≤ 2 | 1307 ± 264.2 | 864 ± 195.9 | 119 ± 11.8 | 166.86 ± 26.65 | 327.5 ± 83.7 | 769.75 ± 168.2 | 17.6 ± 1.82 | 8.86 ± 0.2 | 0.75 | 2.97 ± 0.67 | 31.5 ± 13.3 | 9.13 ± 0.25 | 0.75 | 3.37 ± 0.53 | 9.59 ± 3.39 | 0.75 | 33.4 ± 4.41 | 21.6 ± 3.48 | 23.2 ± 2.12 | COc1ccc(-c2cc(=O)c3c(OC)c(OC)c(OC)c(OC)c3o2)cc1OC [Nobiletin] | AUC(0-inf) [1, 16]: 43.1 ± 11.1 ng·h/mL; AUC(0-t) [1, 16]: 20 ± 2.62 ng·h/mL; MRT inf [1, 16]: 41.8 ± 18.4 h; AUC(0-inf) [1, 17]: 18 ± 3.39 ng·h/mL; AUC(0-t) [1, 17]: 15.5 ± 2.99 ng·h/mL; MRT last [1, 17]: 6.66 ± 0.35 h; MRT inf [1, 17]: 11.1 ± 1.44 h; Cmax [1, 18]: 3.57 ± 0.3 ng/mL |
| ≤ 2 | 4714 ± 1513 | 12017.41 ± 3866.6 | 1560 ± 427.7 | 2980.29 ± 449.33 | 5269.7 ± 1130 | 8115.77 ± 895.52 | 25.5 ± 8.84 | 9.14 ± 0.1 | 0.5 | 2.79 ± 0.6 | 19.2 ± 6.63 | 9.7 ± 0.37 | 0.75 | 3.16 ± 0.22 | 36.4 ± 25.6 | 3 | 41.8 ± 12.1 | 21.8 ± 2.86 | 33.8 ± 11.4 | COc1ccc(C(C)=O)c(O)c1 [Paeonol] | Cmax, PF model group compared with the control group ([1]; PF model vs control rats): significantly decreased; AUCs, PF model group compared with the control group ([1]; PF model vs control rats): significantly decreased; AUC(0-inf) [1, 16]: 41.6 ± 9.78 ng·h/mL; AUC(0-t) [1, 16]: 24.5 ± 2.15 ng·h/mL; MRT inf [1, 16]: 26.9 ± 8.95 h; AUC(0-inf) [1, 17]: 83.4 ± 34.3 ng·h/mL; AUC(0-t) [1, 17]: 35 ± 1.86 ng·h/mL; MRT last [1, 17]: 9.41 ± 0.4 h; MRT inf [1, 17]: 49.6 ± 33.3 h; Cmax [1, 18]: 3.63 ± 0.33 ng/mL; bioavailability in vivo [2]: poor |

| Compound | Tmax [1, 3] [h] | Clearances [1, 4] [mL/min/kg] | Vss [1, 4] [L] | Clearances [1, 5] [mL/min/kg] | Vss [1, 5] [L] | Clearances [1, 6] [mL/min/kg] | Vss [1, 6] [L] | half-life [1, 7] [h] | MRT last [1, 7] [h] | Tmax [1, 8] [h] | Cmax [1, 9] [ng/mL] | half-life [1, 10] [h] | MRT last [1, 10] [h] | Tmax [1, 11] [h] | Cmax [1, 12] [ng/mL] | half-life [1, 13] [h] | Tmax [1, 14] [h] | AUC(0-inf) [1, 15] [ng·h/mL] | AUC(0-t) [1, 15] [ng·h/mL] | MRT inf [1, 15] [h] | other results |
| --- | --- | --- | --- | --- | --- | --- | --- | --- | --- | --- | --- | --- | --- | --- | --- | --- | --- | --- | --- | --- | --- |
| CC1=C2CC3C(CC(=O)C4CC(O)CCC43C)C2CCC12OC1CC(C)CNC1C2C (stereo not shown) [Peimisine] | – | 5.83 ± 1 | 4.24 ± 0.61 | 2.33 ± 0.33 | 1.62 ± 0.32 | 4.33 ± 0.83 | 2.91 ± 0.52 | 7.2 ± 0.28 | 7.56 ± 0.17 | 1.5 | 2.05 ± 0.49 | 8.25 ± 0.94 | 7.92 ± 0.2 | 3.67 ± 0.58 | 2.51 ± 0.55 | 5.96 ± 0.23 | 8 | 14.6 ± 2.48 | 12.3 ± 2.23 | 11.8 ± 0.51 | pharmacokinetic process (versus dosage) ([1]; PF model rats): linear pharmacokinetic process; MRT(0–t), PF model group compared with the control group ([1]; PF model vs control rats): decreased; AUC(0-inf) [1, 16]: 26.8 ± 5.8 ng·h/mL; AUC(0-t) [1, 16]: 23.4 ± 5.01 ng·h/mL; MRT inf [1, 16]: 11.4 ± 1.05 h; AUC(0-inf) [1, 17]: 33.1 ± 6.82 ng·h/mL; AUC(0-t) [1, 17]: 29.7 ± 5.82 ng·h/mL; MRT last [1, 17]: 9.84 ± 0.24 h; MRT inf [1, 17]: 12.2 ± 0.39 h; Cmax [1, 18]: 2.76 ± 0.48 ng/mL |

Reference: PMC10534582, “A Pharmacokinetic Study of Sixteen Major Bioactive Components of Jinshui-Huanxian Granules in Pulmonary Fibrosis Model and Control Rats Using Orbitrap Fusion Mass Spectrometry” (Molecules, 2023)
